From patent publication US8946234B2, “Halogen-substituted compounds” (Bayer CropScience AG, priority 2008, dated 2015) come the findings set out here.

As a reminder, the chromatographic logP is a lipophilicity value derived from retention on a column.

The data set can be described thus: log P from HPLC-MS, no method note printed. It is filed as physicochemical. Conditions: method not given.
`Cn1nc(OCC(F)(F)F)c(I)c1C(=O)O` [4-Iodo-1-methyl-3-(2,2,2-trifluoroethoxy)-1H-pyrazole-5-carboxylic acid]: the chromatographic logP was 2.11.

`Cn1nc(C(F)(F)C(F)(F)F)c(C(F)(F)F)c1SCc1ccccc1` [5-(Benzylsulphanyl)-1-methyl-3-(pentafluoroethyl)-4-(trifluoromethyl)-1H-pyrazole]: the chromatographic logP stood at 5.

Compound `COC(=O)c1c(I)c(-c2ccc(C(F)(F)F)cc2)nn1C` [Methyl 4-iodo-1-methyl-3-[4-(trifluoromethyl)phenyl]-1H-pyrazole-5-carboxylate] yielded a chromatographic logP of 4.23.

`CCOC(=O)c1c(C(F)(F)F)c(C2CC2)nn1C` [Ethyl 3-cyclopropyl-1-methyl-4-(trifluoromethyl)-1H-pyrazole-5-carboxylate] showed a chromatographic logP of 3.66.

In turn, `COC(=O)c1c(C(F)(F)F)c(-c2ccc(C(F)(F)F)cc2)nn1C` [Methyl 1-methyl-4-(trifluoromethyl)-3-[4-(trifluoromethyl)phenyl]-1H-pyrazole-5-carboxylate] registered a chromatographic logP of 4.14.

`COC(=O)c1cc(-c2ccc(C(F)(F)F)cc2)nn1C` [Methyl 1-methyl-3-[4-(trifluoromethyl)phenyl]-1H-pyrazole-5-carboxylate] came in with a chromatographic logP of 3.82.

With `CCOC(=O)c1cnc(C(F)(F)F)nc1-c1ccccn1` [Ethyl 4-(pyridin-2-yl)-2-(trifluoromethyl)pyrimidine-5-carboxylate], the chromatographic logP amounted to 3.09.

Turning to `Cn1nc(OC(F)F)cc1C(=O)O` [3-(Difluoromethoxy)-1-methyl-1H-pyrazole-5-carboxylic acid], the chromatographic logP was 1.15.

The compound `O=C(O)c1nccc(Cl)c1C(F)(F)F` [4-Chloro-3-(trifluoromethyl)pyridine-2-carboxylic acid] displayed a chromatographic logP of 1.16. The chromatographic logP values of the last two compounds are within 0.2 log units of each other.

The compound `COC(=O)c1c(F)c(OCC(F)(F)F)nn1C` [Methyl 4-fluoro-1-methyl-3-(2,2,2-trifluoroethoxy)-1H-pyrazole-5-carboxylate] came in with a chromatographic logP of 2.79.

Regarding `CCOC(=O)c1c(C(F)(F)F)c(C(C)(C)O)nn1C` [Ethyl 3-(2-hydroxypropan-2-yl)-1-methyl-4-(trifluoromethyl)-1H-pyrazole-5-carboxylate], the chromatographic logP is 2.33.

`COC(=O)c1cc(OC(F)F)nn1C` [Methyl-3-(difluoromethoxy)-1-methyl-1H-pyrazole-5-carboxylate] showed a chromatographic logP of 2.04.

In turn, `Cn1nc(C2CC2)c(C(F)(F)F)c1C(=O)O` [3-Cyclopropyl-1-methyl-4-(trifluoromethyl)-1H-pyrazole-5-carboxylic acid] came in with a chromatographic logP of 1.74.

The compound `CCOC(=O)c1c(C(F)(F)F)c(C(C)(C)F)nn1C` [Ethyl 3-(2-fluoropropan-2-yl)-1-methyl-4-(trifluoromethyl)-1H-pyrazole-5-carboxylate] registered a chromatographic logP of 3.55.

In the case of `COC(=O)c1c(Cl)c(OCC(F)(F)F)nn1C` [Methyl 4-chloro-1-methyl-3-(2,2,2-trifluoroethoxy)-1H-pyrazole-5-carboxylate], the chromatographic logP amounted to 3.08.

Take `CCOC(=O)c1c(C(F)(F)F)c(C=O)nn1C` [Ethyl 3-formyl-1-methyl-4-(trifluoromethyl)-1H-pyrazole-5-carboxylate]: the chromatographic logP is 2.4.

`Cn1nc(OC(F)F)c(Br)c1C(=O)O` [4-Bromo-3-(difluoromethoxy)-1-methyl-1H-pyrazole-5-carboxylic acid]: the chromatographic logP stood at 1.52.

`Cn1nc(C(F)(F)C(F)(F)F)c(I)c1C(=O)O` [1-Methyl-3-pentafluoroethyl-4-iodo-1H-pyrazole-5-carboxylic acid]: the chromatographic logP was 2.33.

With `Cn1nc(C(O)C2CC2)c(C(F)(F)F)c1C(=O)O` (stereo not shown) [3-[Cyclopropyl(hydroxy)methyl]-1-methyl-4-(trifluoromethyl)-1H-pyrazole-5-carboxylic acid], the chromatographic logP was 0.72.

`Cn1nc(C(F)F)c(C(F)(F)F)c1C(=O)O` [3-(Difluoromethyl)-1-methyl-4-(trifluoromethyl)-1H-pyrazole-5-carboxylic acid] gave a chromatographic logP of 1.1.

`CCOC(=O)c1sc(C(F)(F)C(F)(F)F)nc1C(F)(F)F` [Ethyl 2-(pentafluoroethyl)-4-(trifluoromethyl)-1,3-thiazole-5-carboxylate] registered a chromatographic logP of 4.36.

As for `CCOC(=O)c1c(C(F)(F)F)c(C(O)C2CC2)nn1C` (stereo not shown) [Ethyl 3-[cyclopropyl(hydroxy)methyl]-1-methyl-4-(trifluoromethyl)-1H-pyrazole-5-carboxylate], the chromatographic logP amounted to 2.38.

In the case of `O=C(O)c1cnc(C(F)(F)F)nc1-c1ccccn1` [4-(Pyridin-2-yl)-2-(trifluoromethyl)pyrimidine-5-carboxylic acid], the chromatographic logP was found to be 1.5.

In the case of `Cn1nc(-c2ccc(C(F)(F)F)cc2)c(C(F)(F)F)c1C(=O)O` [1-Methyl-4-(trifluoromethyl)-3-[4-(trifluoromethyl)phenyl]-1H-pyrazole-5-carboxylic acid], the chromatographic logP amounted to 1.24.

In turn, `COC(=O)c1c(Br)c(OC(F)F)nn1C` [Methyl 4-bromo-3-(difluoromethoxy)-1-methyl-1H-pyrazole-5-carboxylate] showed a chromatographic logP of 2.62.

Consider `COC(=O)c1c(I)c(OC(F)F)nn1C` [Methyl 3-(difluoromethoxy)-4-iodo-1-methyl-1H-pyrazole-5-carboxylate], for which the chromatographic logP was determined as 2.69.

The compound `COC(=O)c1c(Cl)c(OC(F)F)nn1C` [Methyl 4-chloro-3-(difluoromethoxy)-1-methyl-1H-pyrazole-5-carboxylate] came in with a chromatographic logP of 2.57.

Take `COC(=O)c1c(Br)c(OCC(F)(F)F)nn1C` [Methyl 4-bromo-1-methyl-3-(2,2,2-trifluoroethoxy)-1H-pyrazole-5-carboxy late]: the chromatographic logP came to 3.14.

Compound `CCOC(=O)c1c(C(F)(F)F)c(CO)nn1C` [Ethyl-3-(hydroxymethyl)-1-methyl-4-(trifluoromethyl)-1H-pyrazole-5-carboxylate] registered a chromatographic logP of 1.74.

The compound `CCOC(=O)c1cnc(C(F)(F)C(F)(F)F)nc1C(F)(F)C(F)(F)F` [Ethyl 2,4-bis(pentafluoroethyl)pyrimidine-5-carboxylate] displayed a chromatographic logP of 4.41.

Compound `Cn1nc(OCC(F)(F)F)c(Cl)c1C(=O)O` [4-Chloro-1-methyl-3-(2,2,2-trifluoroethoxy)-1H-pyrazole-5-carboxylic acid] gave a chromatographic logP of 2.
